Measured values reported in patent publication US20210292330A1, “PYRROLIDINE-FUSED HETEROCYCLES” (Erasca, Inc., priority 2020, published 2021).

Molecular target: T1, KRAS 4B G12C protein (Homo sapiens, UniProt P01116, G12C)
T1 construct: This protein contained 188 amino acids in total, including an N-terminal 6-Histidine tag; made in house; host or cells: E. coli BL21
Experiment: In vitro covalent adduct formation (CAF) assay by LC-MS
Type: binding
Conditions: compound 10 μM, protein 5 μM, 22° C., percentage of protein bound by the compound
Summary of the method: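 Percent of protein covalently modified was quantified from intact-mass LC-MS ratios of free versus adducted protein, adducts within 1 Da of expected mass. Reactions: 10 μM compound, 5 μM His-TEV-KRAS 4B G12C (1-169) in TBS pH 7.4, 4% DMSO, 22° C., one hour, run in duplicate.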

Row | Compound | CAF (10 minutes/60 minutes) at 10 micromolar: 10 minutes | CAF (10 minutes/60 minutes) at 10 micromolar: 60 minutes
1 | C=CC(=O)N1CCN(c2nc(OC[C@@H]3CCCN3C)nc3c2CN(Cc2ccccc2C(F)(F)F)C3)C[C@@H]1CC#N [1-213] | 94% | 95%
2 | C=CC(=O)N1CCN(c2nc(OC[C@@H]3CCCN3C)nc3c2CN(C2CCc4ccccc42)C3)C[C@@H]1Cn1ccnn1 (stereo partly drawn) [1-214] | 0% | 2%
3 | C=CC(=O)N1CCN(c2nc(OC[C@@H]3CCCN3C)nc3c2CN(C2CCc4ccccc42)C3)C[C@@H]1Cn1nccn1 (stereo partly drawn) [1-215] | 0% | 7%
4 | C=CC(=O)N1CC2(C1)CN(c1nc(OC[C@@H]3CCCN3C)nc3c1CN(C1CCc4ccccc41)C3)CCO2 (stereo partly drawn) [1-216] | 18% | 54%
5 | C=CC(=O)N1CCN(c2nc(OC[C@@H]3CCCN3C)nc3c2CN(C2CCc4ccccc42)C3)C[C@@H]1CNC(C)=O (stereo partly drawn) [1-217] | 0%/ 0% | 0%/ 0%
6 | C=C(F)C(=O)N1CCN(c2nc(OC[C@@H]3CCCN3C)nc3c2CN(Cc2cc(O)ccc2C(C)C)C3)C[C@@H]1CC#N [1-218] | 95% | 94%
7 | C=CC(=O)N1CCN(c2nc(OC[C@@H]3CCCN3C)nc3c2CN(C2CCc4ccccc42)C3)C[C@@H]1Cn1ccnc1 (stereo partly drawn) [1-219] | 0% | 1%
8 | C=CC(=O)N1CCN(c2nc(OC[C@@H]3CCCN3C)nc3c2CN(C2CCc4ccccc42)C3)C[C@@H]1Cn1cccn1 (stereo partly drawn) [1-220] | 0% | 2%
9 | C=C(F)C(=O)N1CCN(c2nc(OC[C@@H]3CCCN3C)nc3c2CN(Cc2ccccc2C(F)(F)F)C3)C[C@@H]1CC#N [1-221] | 62% | 92%
10 | C=C(F)C(=O)N1CCN(c2nc(OC[C@@H]3CCCN3C)nc3c2CN(Cc2cc(Cl)ccc2C(F)(F)F)C3)C[C@@H]1CC#N [1-222] | 3% | 24%
11 | C=CC(=O)N1CCN(c2nc(OC[C@@H]3CCCN3C)nc3c2CN(C2CCc4ccccc42)C3)C[C@@H]1Cc1ncc[nH]1 (stereo partly drawn) [1-224, 1-((2S)-2-((1H-imidazol-2-yl)methyl)-4-(6-(2,3-dihydro-1H-inden-1-yl)-2-(((S)-1-methylpyrrolidin-2-yl)methoxy)-6,7-dihydro-5H-pyrrolo[3,4-d]pyrimidin-4-yl)piperazin-1-yl)prop-2-en-1-one] | 0%/ 0% | 0%/ 0%
12 | C=CC(=O)N1CCN(c2nc(OC[C@@H]3CCCN3C)nc3c2CN(Cc2ccccc2CC(F)(F)F)C3)C[C@@H]1CC#N [1-225] | 77% | 93%
13 | C=CC(=O)N1CCN(c2nc(O[C@@H]3CN(C)C[C@H]3OC)nc3c2CN(C2CCc4ccccc42)C3)C2COCC21 (stereo partly drawn) [1-227] | 0%/ 0% | 0%/ 0%
14 | C=CC(=O)N1CCN(c2nc(O[C@@H]3CN(C)C[C@H]3OC)nc3c2CN(C2CCc4ccccc42)C3)C2CS(=O)(=O)CC21 (stereo partly drawn) [1-228] | 0%/ 0% | 0%/ 0%
15 | C=CC(=O)N1CCN(c2nc(OC[C@@H]3CCCN3C)nc3c2CN(Cc2c(Cl)ccc4nc[nH]c24)C3)C[C@@H]1CC#N [1-229] | 94% | 95%
16 | C=CC(=O)N1CCN(c2nc(OC[C@@H]3CCCN3C)nc3c2CN(C2CCc4ccccc42)C3)C[C@@H]1CCC(N)=O (stereo partly drawn) [1-231] | 0% | 1%
17 | C=CC(=O)N1C2CC(=O)CC1CN(c1nc(O[C@@H]3CN(C)C[C@H]3OC)nc3c1CN(C1CCc4ccccc41)C3)C2 (stereo partly drawn) [1-232] | 0%/ 0% | 0%/ 0%
18 | C=CC(=O)N1C2CC(=O)CC1CN(c1nc(OC[C@@H]3CCCN3C)nc3c1CN(C1CCc4ccccc41)C3)C2 (stereo partly drawn) [1-233] | 0% | 5%
19 | C#Cc1ccccc1CN1Cc2nc(OC[C@@H]3CCCN3C)nc(N3CCN(C(=O)C=C)[C@@H](CC#N)C3)c2C1 [1-235] | 0%/ 0% | 0%/ 0%
20 | C=CC(=O)N1CC2CC(=O)CC(C1)N2c1nc(OC[C@@H]2CCCN2C)nc2c1CN(C1CCc3ccccc31)C2 (stereo partly drawn) [1-251] | 0%/ 0% | 0%/ 0%
21 | C=CC(=O)N1CC2CC(=O)CC(C1)N2c1nc(O[C@@H]2CN(C)C[C@H]2OC)nc2c1CN(C1CCc3ccccc31)C2 (stereo partly drawn) [1-252] | 0%/ 0% | 0%/ 0%

Other lines, results leading:

Row | CAF (10 minutes/60 minutes) at 10 micromolar: 10 minutes | CAF (10 minutes/60 minutes) at 10 micromolar: 60 minutes | Compound
22 | 94% | 95% | C=CC(=O)N1CCN(c2nc(OC[C@@H]3CCCN3C)nc3c2CN(Cc2c(Cl)ccc4ccccc24)C3)C[C@@H]1CC#N [1-236]
23 | 27% | 80% | C=CC(=O)N1CCN(c2nc(OC[C@@H]3CCCN3C)nc3c2CN(S(=O)(=O)c2ccccc2C)C3)C[C@@H]1CC#N [1-237]
24 | 73% | 95% | C=CC(=O)N1CCN(c2nc(OC[C@@H]3CCCN3C)nc3c2CN(S(=O)(=O)c2cccc4ccccc24)C3)C[C@@H]1CC#N [1-238]
25 | 0%/ 0% | 0%/ 0% | C=CC(=O)N1CC2CC1CN2c1nc(OC[C@@H]2CCCN2C)nc2c1CN(C1CCc3ccccc31)C2 (stereo partly drawn) [1-249]
26 | 0%/ 0% | 0%/ 0% | C=CC(=O)N1CC2CC(=O)CC1CN2c1nc(OC)nc2c1CN(C1CCc3ccccc31)C2 (stereo not drawn) [1-250]
27 | 93% | 94% | C=C(F)C(=O)N1CCN(c2nc(OC[C@@H]3CCCN3C)nc3c2CN(Cc2c(CC)ccc(O)c2C)C3)C[C@@H]1CC#N [1-253]
28 | 31% | 73% | C=C(F)C(=O)N1CCN(c2nc(OC[C@@H]3CCCN3C)nc3c2CN(Cc2c(Cl)ccc4ccccc24)C3)C[C@@H]1CC#N [1-254]
29 | 92% | 94% | C=CC(=O)N1CCN(c2nc(OC[C@@H]3CCCN3C)nc3c2CN(Cc2c(CC)ccc(O)c2C)C3)C[C@@H]1CC#N [1-255]
30 | 93% | 95% | C=C(F)C(=O)N1CCN(c2nc(OC[C@@H]3CCCN3C)nc3c2CN(Cc2c(Cl)ccc(O)c2C)C3)C[C@@H]1CC#N [1-311]
31 | 95%/ 95% | 95%/ 95% | C=CC(=O)N1CCN(c2nc(OC[C@@H]3CCCN3C)nc3c2CN(Cc2c(Cl)ccc(O)c2C)C3)C[C@@H]1CC#N [1-312]
32 | 87% | 95% | C=C(F)C(=O)N1CCN(c2nc(OC[C@@H]3CCCN3C)nc3c2CN(Cc2c(CC)ccc(O)c2OC)C3)C[C@@H]1CC#N [1-313]
33 | 41% | 66% | C=CC(=O)N1CCN(c2nc(OC[C@@H]3CCCN3C)nc3c2CN(Cc2cc(O)ccc2Cl)C3)C2COCC21 (stereo partly drawn) [1-315]
34 | 0%/ 0% | 0%/ 0% | CN1CCC[C@H]1COc1nc2c(c(N3CCN(C(=O)C45CC4C5)[C@@H](CC#N)C3)n1)CN(C1CCc3ccccc31)C2 (stereo partly drawn) [1-316]
35 | 0%/ 0% | 0%/ 0% | CN1CCC[C@H]1COc1nc2c(c(N3CCN(C(=O)C45CC4C5)[C@@H](CC#N)C3)n1)CN(Cc1ccccc1Cl)C2 (stereo partly drawn) [1-317]
36 | 1% | 11% | C=CC(=O)N1CCN(c2nc(OC[C@@H]3CCCN3C)nc3c2CN(Cc2cccc4ncccc24)C3)C[C@@H]1CC#N [1-318]
37 | 0%/ 0% | 0%/ 0% | C=C(F)C(=O)N1CCN(c2nc(OC[C@@H]3CCCN3C)nc3c2CN(Cc2cccc4ncccc24)C3)C[C@@H]1CC#N [1-319]
38 | 76% | 91% | C=C(F)C(=O)N1CCN(c2nc(OC[C@@H]3CCCN3C)nc3c2CN(Cc2c(Cl)ccc4nc[nH]c24)C3)C[C@@H]1CC#N [1-320]
39 | 88% | 90% | C=CC(=O)N1CCN(c2nc(OC[C@@H]3CCCN3C)nc3c2CN(Cc2c(Cl)ccc(O)c2Cl)C3)C[C@@H]1CC#N [1-321]
40 | 76% | 94% | C=C(F)C(=O)N1CCN(c2nc(OC[C@@H]3CCCN3C)nc3c2CN(Cc2c(Cl)ccc(O)c2Cl)C3)C[C@@H]1CC#N [1-322]
41 | 72% | 93% | C=CC(=O)N1CCN(c2nc(OC[C@@H]3CCCN3C)nc3c2CN(Cc2cc(O)c(C)cc2Cl)C3)C[C@@H]1CC#N [1-323]
42 | 31% | 78% | C=CC(=O)N1CCN(c2nc(OC[C@@H]3CCCN3C)nc3c2CN(Cc2c(C)cc(C)c(O)c2C)C3)C[C@@H]1CC#N [1-324]
